Test results: PubChem BioAssay AID330 (DTP/NCI, 2004)
“And” between values parts separate entries of the source, which are not always exact repeats. Equal values may be shown once. Toxic doses and inconclusive results are not listed.

Tested on: P388 leukemia ip, CD2F1 mice, survival T/C
Assay: NCI In Vivo Anticancer Drug Screen. Data for tumor model P388 Leukemia (intraperitoneal) in CD2F1 (CDF1) mice
Details: endpoint: median survival time, higher = longer survival
Protocol: The antitumor activity of compounds was measured in mice bearing transplantable tumors. Survival or tumor size were measured and the results are expressed as the measurement made in the treated group (T) divided by the measurement made in the vehicle treated control group (C). The tumor model used in this assay is P388 Leukemia (intraperitoneal) in CD2F1 (CDF1) mice

[1] = dose: 50.0 mg/kg/injection, schedule: Q01DX005 (ip), vehicle: saline with Tween-80
[2] = dose: 100.0 mg/kg/injection, schedule: Q01DX005 (ip), vehicle: saline with Tween-80
[3] = dose: 200.0 mg/kg/injection, schedule: Q01DX005 (ip), vehicle: saline with Tween-80
[4] = dose: 50.0 mg/kg/injection, schedule: Q01DX005 (ip), vehicle: saline
[5] = dose: 100.0 mg/kg/injection, schedule: Q01DX005 (ip), vehicle: saline
[6] = dose: 200.0 mg/kg/injection, schedule: Q01DX005 (ip), vehicle: saline
[7] = dose: 100.0 mg/kg/injection, schedule: Q04DX002 (ip), vehicle: saline with Tween-80
[8] = dose: 200.0 mg/kg/injection, schedule: Q04DX002 (ip), vehicle: saline with Tween-80
[9] = dose: 400.0 mg/kg/injection, schedule: Q04DX002 (ip), vehicle: saline with Tween-80
[10] = dose: 50.0 mg/kg/injection, schedule: Q01DX009 (ip), vehicle: Klucel (hydroxypropylcellulose) (HPC)
[11] = dose: 100.0 mg/kg/injection, schedule: Q01DX009 (ip), vehicle: Klucel (hydroxypropylcellulose) (HPC)
[12] = dose: 200.0 mg/kg/injection, schedule: Q01DX009 (ip), vehicle: Klucel (hydroxypropylcellulose) (HPC)
[13] = dose: 100.0 mg/kg/injection, schedule: Q01DX001 (ip), vehicle: Klucel (hydroxypropylcellulose) (HPC)
[14] = dose: 200.0 mg/kg/injection, schedule: Q01DX001 (ip), vehicle: Klucel (hydroxypropylcellulose) (HPC)
[15] = dose: 400.0 mg/kg/injection, schedule: Q01DX001 (ip), vehicle: Klucel (hydroxypropylcellulose) (HPC)
[16] = dose: 100.0 mg/kg/injection, schedule: Q01DX009 (ip), vehicle: saline with Tween-80
[17] = dose: 100.0 mg/kg/injection, schedule: Q04DX003 (ip), vehicle: saline with Tween-80
[18] = dose: 200.0 mg/kg/injection, schedule: Q01DX009 (ip), vehicle: saline with Tween-80
[19] = dose: 200.0 mg/kg/injection, schedule: Q04DX003 (ip), vehicle: saline with Tween-80
[20] = dose: 100.0 mg/kg/injection, schedule: Q04DX003 (ip), vehicle: saline
[21] = dose: 200.0 mg/kg/injection, schedule: Q04DX003 (ip), vehicle: saline
[22] = dose: 400.0 mg/kg/injection, schedule: Q04DX003 (ip), vehicle: saline
[23] = dose: 25.0 mg/kg/injection, schedule: Q04DX003 (ip), vehicle: saline with Tween-80
[24] = dose: 50.0 mg/kg/injection, schedule: Q01DX009 (ip), vehicle: saline with Tween-80

COC(=O)Nc1nc2ccc(-c3c(C)oc(C)c3C(=O)O)cc2[nH]1
T/C [1]: 97 % of control
T/C [2]: 97 % of control
T/C [3]: 87 % of control

CN(C)C(=O)COC(C(=O)N(C)C)C(OCC(=O)N(C)C)C(=O)N(C)C (stereo unspecified)
T/C [4]: 97 % of control
T/C [5]: 95 % of control
T/C [6]: 92 % of control

CC(C)NCC(O)c1ccc(O)c2ncccc12 (stereo unspecified)
T/C [4]: 100 % of control
T/C [5]: 100 % of control
T/C [6]: 101 % of control

CCOC(=O)C(C(=O)OCC)=C(C)/C=C/C(Cl)(Cl)Cl
T/C [7]: 110 % of control
T/C [8]: 102 % of control
T/C [9]: 98 % of control

CC(=N)C(C#N)C(=S)S (stereo unspecified)
T/C [10]: 102 % of control
T/C [11]: 86 % of control
T/C [12]: 89 % of control

Cc1ccc(S(=O)(=O)NNC(=O)c2ccccc2Nc2cccc(Br)c2)cc1
T/C [13]: 97 % of control
T/C [14]: 97 % of control
T/C [15]: 98 % of control

Clc1nc2nc(Cl)c(Cl)n2nc1Cl
T/C (dose: 6.25 mg/kg/injection, schedule: Q04DX002 (ip), vehicle: saline): 109 % of control
T/C (dose: 12.5 mg/kg/injection, schedule: Q04DX002 (ip), vehicle: saline): 107 % of control
T/C (dose: 25.0 mg/kg/injection, schedule: Q04DX002 (ip), vehicle: saline): 106 % of control

COc1ccc(CCN2C(=O)CSC2=S)cc1OC
T/C [16]: 100 % of control
T/C [17]: 90 % of control
T/C [18]: 90 % of control
T/C [19]: 90 % of control
T/C (dose: 400.0 mg/kg/injection, schedule: Q04DX003 (ip), vehicle: saline with Tween-80): 90 % of control

CC(C1CC/C(=N/NC(N)=O)C1)[N+](=O)[O-] (stereo unspecified)
T/C (dose: 12.5 mg/kg/injection, schedule: Q01DX009 (ip), vehicle: distilled water + Tween-80): 100 % of control
T/C (dose: 25.0 mg/kg/injection, schedule: Q01DX009 (ip), vehicle: distilled water + Tween-80): 91 % of control
T/C (dose: 50.0 mg/kg/injection, schedule: Q01DX009 (ip), vehicle: distilled water + Tween-80): 90 % of control
T/C (dose: 100.0 mg/kg/injection, schedule: Q01DX009 (ip), vehicle: distilled water + Tween-80): 100 % of control
T/C (dose: 200.0 mg/kg/injection, schedule: Q01DX009 (ip), vehicle: distilled water + Tween-80): 92 % of control

CNC(=S)N/N=C(C)\C=N/Nc1cccc(Cl)c1
T/C [20]: 92 % of control
T/C [21]: 93 % of control
T/C [22]: 100 % of control

O=CC(Br)C(Br)c1ccccc1 (stereo unspecified)
T/C (dose: 6.25 mg/kg/injection, schedule: Q01DX009 (ip), vehicle: saline with Tween-80): 122 % of control
T/C (dose: 6.25 mg/kg/injection, schedule: Q04DX003 (ip), vehicle: saline with Tween-80): 109 % of control
T/C (dose: 12.5 mg/kg/injection, schedule: Q01DX009 (ip), vehicle: saline with Tween-80): 109 % of control
T/C (dose: 12.5 mg/kg/injection, schedule: Q04DX003 (ip), vehicle: saline with Tween-80): 109 % of control
T/C (dose: 25.0 mg/kg/injection, schedule: Q01DX009 (ip), vehicle: saline with Tween-80): 100 % of control
T/C [23]: 113 % of control

COCNC(=S)c1cc(C(=S)NCOC)c(C(=O)NC(C)(C)C)nc1C(=O)NC(C)(C)C
T/C [7]: 92 % of control
T/C [8]: 98 % of control
T/C [9]: 93 % of control

CSC(=S)c1ccccc1NS(=O)(=O)c1ccccc1
T/C [20]: 113 % of control
T/C [21]: 103 % of control
T/C [22]: 108 % of control

O=C1C(Cc2ccccc2)C(=O)N2c3ccccc3C=CC2N1c1ccccc1 (stereo unspecified)
T/C (dose: 60.0 mg/kg/injection, schedule: Q01DX005 (ip), vehicle: Klucel (hydroxypropylcellulose) (HPC)): 98 % of control
T/C (dose: 120.0 mg/kg/injection, schedule: Q01DX005 (ip), vehicle: Klucel (hydroxypropylcellulose) (HPC)): 97 % of control
T/C (dose: 240.0 mg/kg/injection, schedule: Q01DX005 (ip), vehicle: Klucel (hydroxypropylcellulose) (HPC)): 89 % of control

CN(C)C1C(=O)C(C(N)=O)=C(O)C2(O)C(=O)C3=C(O)c4c(O)cccc4C(C)(O)C3CC12.O.O.O.[Al] (stereo unspecified)
T/C (dose: 25.0 mg/kg/injection, schedule: Q01DX009 (ip), vehicle: Klucel (hydroxypropylcellulose) (HPC)): 95 % of control
T/C [1]: 99 % of control
T/C [10]: 92 % of control
T/C [2]: 99 % of control
T/C [11]: 103 % of control
T/C [3]: 99 % of control
T/C [12]: 106 % of control
T/C (dose: 400.0 mg/kg/injection, schedule: Q01DX009 (ip), vehicle: Klucel (hydroxypropylcellulose) (HPC)): 107 % of control

CCC(=O)n1nc(Nc2ccccc2)c(C(=O)OC)c1C
T/C (dose: 6.25 mg/kg/injection, schedule: Q01DX005 (ip), vehicle: saline with Tween-80): 99 % of control
T/C (dose: 12.5 mg/kg/injection, schedule: Q01DX005 (ip), vehicle: saline with Tween-80): 94 % of control
T/C (dose: 25.0 mg/kg/injection, schedule: Q01DX005 (ip), vehicle: saline with Tween-80): 94 % of control
T/C [3]: 86 % of control

Cc1cc[n+](C)c2ccccc12
T/C (dose: 9.37 mg/kg/injection, schedule: Q01DX009 (ip), vehicle: saline with Tween-80): 109 % of control
T/C (dose: 18.75 mg/kg/injection, schedule: Q01DX009 (ip), vehicle: saline with Tween-80): 100 % of control
T/C (dose: 37.5 mg/kg/injection, schedule: Q01DX009 (ip), vehicle: saline with Tween-80): 104 % of control

COc1ccc(C(CC(=O)O)CC(=O)N(CCCl)CCCl)cc1 (stereo unspecified)
T/C (dose: 25.0 mg/kg/injection, schedule: Q01DX001 (ip), vehicle: saline): 100 % of control and 102 % of control
T/C [23]: 101 % of control
T/C (dose: 25.0 mg/kg/injection, schedule: Q04DX003 (ip), vehicle: saline): 102 % of control
T/C (dose: 25.0 mg/kg/injection, schedule: Q04DX003 (ip), vehicle: suspension in saline): 106 % of control
T/C (dose: 50.0 mg/kg/injection, schedule: Q01DX001 (ip), vehicle: saline): 100 % of control and 103 % of control
T/C (dose: 50.0 mg/kg/injection, schedule: Q04DX003 (ip), vehicle: saline with Tween-80): 102 % of control
T/C (dose: 50.0 mg/kg/injection, schedule: Q04DX003 (ip), vehicle: saline): 102 % of control
T/C (dose: 50.0 mg/kg/injection, schedule: Q04DX003 (ip), vehicle: suspension in saline): 115 % of control
T/C (dose: 100.0 mg/kg/injection, schedule: Q01DX001 (ip), vehicle: saline): 100 % of control and 103 % of control
T/C [17]: 101 % of control
T/C [20]: 97 % of control
T/C (dose: 100.0 mg/kg/injection, schedule: Q04DX003 (ip), vehicle: suspension in saline): 124 % of control
T/C (dose: 200.0 mg/kg/injection, schedule: Q01DX001 (ip), vehicle: saline): 100 % of control and 104 % of control
T/C [19]: 101 % of control
T/C [21]: 94 % of control
T/C (dose: 200.0 mg/kg/injection, schedule: Q04DX003 (ip), vehicle: suspension in saline): 157 % of control

Oc1c(Cl)cc(Cl)cc1C=Nc1cc(C(F)(F)F)ccc1N1CCc2ccccc2C1
T/C [24]: 98 % of control
T/C [16]: 95 % of control
T/C [18]: 96 % of control

O/N=C/c1c(-c2ccccc2)nc2sccn12
T/C [13]: 94 % of control
T/C [14]: 86 % of control
T/C [15]: 94 % of control

CC(C)=CCC/C(C)=C/CC/C(C)=C/CS(=O)(=O)c1ccc(C)cc1
T/C [24]: 105 % of control
T/C [16]: 105 % of control
T/C [18]: 109 % of control

CCCCCCCCNC(=O)C1C(=O)N(CCCCCCCC)C(=O)/C1=N/N (stereo unspecified)
T/C [7]: 100 % of control
T/C [8]: 92 % of control
